PubChem BioAssay AID1918955 (Molecular Pharmacology Branch, DTP, NCI, 2023)
Where “and” joins values, the source holds several entries; their conditions need not be identical. Equal entries are not always repeated. Values belong to the molecule of their own block, whether it stands above or below them.

Tested on: NCI/ADR-RES complex spheroid viability
Test: Anticancer human tumor NCI/ADR-RES cell line growth inhibition;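 also: spheroids exposed to compounds for 7 days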;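 as to viability, T/C: 100% = DMSO vehicle treated spheroids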
Settings: for viability, T/C: stronger effect = lower value
Outline: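 Complex spheroids of tumor cells with HUVEC and human MSCs, exposed to iadademstat combined with other agents. Each agent tested in half-log steps from near clinical Cmax (else 10 microM top), DMSO ≤0.25%.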

[1] = curve of first compound, second compound 0.1 µM
[2] = curve of first compound, second compound 0.316 µM
[3] = curve of first compound, second compound 1 µM
[4] = curve of first compound, second compound 3.16 µM
[5] = curve of first compound, second compound 10 µM

IC50 (curve of compound): > 10000 nM and 7480 nM
Compound: CC1COCCN1c1cc(C2(S(C)(=N)=O)CC2)nc(-c2ccnc3[nH]ccc23)n1 (centres undefined)
viability, T/C (compound 0.0316 µM): 101% and 106%
viability, T/C (compound 0.1 µM): 96% and 110%
viability, T/C (compound 0.316 µM): 93.8% and 98.5%
viability, T/C (compound 1 µM): 91.3% and 86.3%
viability, T/C (compound 3.16 µM): 72% and 71.1%
viability, T/C (compound 10 µM): 57.2% and 43.1%

Compound: CCc1c2c(nc3ccc(O)cc13)-c1cc3c(c(=O)n1C2)COC(=O)[C@]3(O)CC + NC1CCC(NC2CC2c2ccccc2)CC1
IC50 [1]: < 0.949 nM
IC50 [2]: < 0.949 nM
IC50 [3]: < 0.949 nM
IC50 [4]: < 0.949 nM
IC50 [5]: < 0.949 nM
viability, T/C (second compound 0.1 µM, first compound 0.000949 µM): 5.27%
viability, T/C (second compound 0.1 µM, first compound 0.003 µM): 2.59%
viability, T/C (second compound 0.1 µM, first compound 0.00949 µM): 0.6%
viability, T/C (second compound 0.1 µM, first compound 0.03 µM): 1.16%
viability, T/C (second compound 0.1 µM, first compound 0.0949 µM): 1.11%
viability, T/C (second compound 0.1 µM, first compound 0.3 µM): 3.88%
viability, T/C (second compound 0.316 µM, first compound 0.000949 µM): 2.94%
viability, T/C (second compound 0.316 µM, first compound 0.003 µM): 1.44%
viability, T/C (second compound 0.316 µM, first compound 0.00949 µM): 1.36%
viability, T/C (second compound 0.316 µM, first compound 0.03 µM): 2.53%
viability, T/C (second compound 0.316 µM, first compound 0.0949 µM): 0.44%
viability, T/C (second compound 0.316 µM, first compound 0.3 µM): 0.37%
viability, T/C (second compound 1 µM, first compound 0.000949 µM): 6.45%
viability, T/C (second compound 1 µM, first compound 0.003 µM): 1.09%
viability, T/C (second compound 1 µM, first compound 0.00949 µM): 1.09%
viability, T/C (second compound 1 µM, first compound 0.03 µM): 1.03%
viability, T/C (second compound 1 µM, first compound 0.0949 µM): 0.47%
viability, T/C (second compound 1 µM, first compound 0.3 µM): 0.58%
viability, T/C (second compound 3.16 µM, first compound 0.000949 µM): 2.6%
viability, T/C (second compound 3.16 µM, first compound 0.003 µM): 1.07%
viability, T/C (second compound 3.16 µM, first compound 0.00949 µM): 0.88%
viability, T/C (second compound 3.16 µM, first compound 0.03 µM): 0.53%
viability, T/C (second compound 3.16 µM, first compound 0.0949 µM): 1.24%
viability, T/C (second compound 3.16 µM, first compound 0.3 µM): 2.59%
viability, T/C (second compound 10 µM, first compound 0.000949 µM): 4.02%
viability, T/C (second compound 10 µM, first compound 0.003 µM): 1.26%
viability, T/C (second compound 10 µM, first compound 0.00949 µM): 0.71%
viability, T/C (second compound 10 µM, first compound 0.03 µM): 0.53%
viability, T/C (second compound 10 µM, first compound 0.0949 µM): 0.22%
viability, T/C (second compound 10 µM, first compound 0.3 µM): 4.32%

Compound: COc1cc(Nc2ncc3c(n2)-c2ccc(Cl)cc2C(c2c(F)cccc2OC)=NC3)ccc1C(=O)O + NC1CCC(NC2CC2c2ccccc2)CC1
IC50 [1]: 20.8 nM
IC50 [2]: 21.2 nM
IC50 [3]: 17.5 nM
IC50 [4]: 16.6 nM
IC50 [5]: 16.1 nM
viability, T/C (second compound 0.1 µM, first compound 0.00316 µM): 92%
viability, T/C (second compound 0.1 µM, first compound 0.01 µM): 71%
viability, T/C (second compound 0.1 µM, first compound 0.0316 µM): 38%
viability, T/C (second compound 0.1 µM, first compound 0.1 µM): 23.2%
viability, T/C (second compound 0.1 µM, first compound 0.316 µM): 18.2%
viability, T/C (second compound 0.1 µM, first compound 1 µM): 20.5%
viability, T/C (second compound 0.316 µM, first compound 0.00316 µM): 92%
viability, T/C (second compound 0.316 µM, first compound 0.01 µM): 75%
viability, T/C (second compound 0.316 µM, first compound 0.0316 µM): 37.1%
viability, T/C (second compound 0.316 µM, first compound 0.1 µM): 18.1%
viability, T/C (second compound 0.316 µM, first compound 0.316 µM): 20%
viability, T/C (second compound 0.316 µM, first compound 1 µM): 17.4%
viability, T/C (second compound 1 µM, first compound 0.00316 µM): 90.4%
viability, T/C (second compound 1 µM, first compound 0.01 µM): 61%
viability, T/C (second compound 1 µM, first compound 0.0316 µM): 40.2%
viability, T/C (second compound 1 µM, first compound 0.1 µM): 18.6%
viability, T/C (second compound 1 µM, first compound 0.316 µM): 16.6%
viability, T/C (second compound 1 µM, first compound 1 µM): 18.8%
viability, T/C (second compound 3.16 µM, first compound 0.00316 µM): 90.6%
viability, T/C (second compound 3.16 µM, first compound 0.01 µM): 63.4%
viability, T/C (second compound 3.16 µM, first compound 0.0316 µM): 32.7%
viability, T/C (second compound 3.16 µM, first compound 0.1 µM): 19.1%
viability, T/C (second compound 3.16 µM, first compound 0.316 µM): 12.3%
viability, T/C (second compound 3.16 µM, first compound 1 µM): 12.7%
viability, T/C (second compound 10 µM, first compound 0.00316 µM): 82%
viability, T/C (second compound 10 µM, first compound 0.01 µM): 63.7%
viability, T/C (second compound 10 µM, first compound 0.0316 µM): 30.3%
viability, T/C (second compound 10 µM, first compound 0.1 µM): 17.5%
viability, T/C (second compound 10 µM, first compound 0.316 µM): 9.8%
viability, T/C (second compound 10 µM, first compound 1 µM): 8.65%

IC50 (curve of compound): 7.18 nM and 7.06 nM
Compound: CC[C@@]1(O)C(=O)OCc2c1cc1n(c2=O)Cc2cc3c(CN(C)C)c(O)ccc3nc2-1
viability, T/C (compound 0.000316 µM): 102% and 96.9%
viability, T/C (compound 0.001 µM): 102% and 100%
viability, T/C (compound 0.00316 µM): 78.6% and 75.9%
viability, T/C (compound 0.01 µM): 39.1% and 39.4%
viability, T/C (compound 0.0316 µM): 7.88% and 7.23%
viability, T/C (compound 0.1 µM): 2.74% and 2.23%
